Consider five compounds from patent US4740233A, “Substituted 1,2,4-triazolo[1,5-a]-pyrimidine-2-sulfonamides and compositions and methods of controlling undesired vegetation and suppressing the nitrification of ammonium nitrogen in soil” (The Dow Chemical Company, priority 1986, dated 1988).

Holding throughout (assay): Preemergent control of plant species
The test system of one assay is velvetleaf. It counts as in vivo, Abutilon theophrasti. The settings on record: Abutilon theophrasti, pre-emergence, 336 h; 0.25 lb/acre; read-out: percent preemergent control. The method, then: (§1) The seeds of various species of plants were planted in beds of good agricultural soil in a greenhouse. A number of compositions of the present invention, generally in the nature of an aqueous emulsion, were applied at rates listed in the table so as to deposit a predetermined amount of active ingredients uniformly throughout the surface of the bed. Another seed bed was treated only with water to serve as a control. After treatment the seed beds were maintained for two weeks under greenhouse conditions conducive for good plant growth and watered as necessary. Control refers to the reduction in growth compared to the observed results of the same untreated species.

The test system of a further assay is johnson grass. Format: in vivo, Sorghum halepense. The following applies: Sorghum halepense, pre-emergence, 336 h; 0.25 lb/acre; read-out: percent preemergent control. The method, then: as §1
Another assay deals with soybean. It counts as in vivo, Glycine max. The following applies: Glycine max, pre-emergence, 336 h; 0.25 lb/acre; read-out: percent preemergent control. On the procedure: as §1
A further assay has as its system annual morning glory. Format: in vivo, Ipomoea spp. The following applies: Ipomoea, pre-emergence, 336 h; 0.25 lb/acre; read-out: percent preemergent control. The method, then:
as §1

The test system of a further assay is barnyardgrass. Format: in vivo, Echinochloa crusgalli. The settings on record: Echinochloa crus-galli, pre-emergence, 336 h; 0.25 lb/acre; read-out: percent preemergent control. The method, then: as §1
The subject of another assay is sugar beet. Format: in vivo, Beta saccharifera. The following applies: Beta vulgaris, pre-emergence, 336 h; 0.25 lb/acre; read-out: percent preemergent control. On the procedure:
as §1

In another assay the test system is wheat. Format: in vivo, Triticum aestivum. The settings on record: Triticum aestivum, pre-emergence, 336 h; 0.25 lb/acre; read-out: percent preemergent control. The method, then: as §1
The next assay concerns cotton. Format: in vivo, Gossypium spp. The settings on record: Gossypium hirsutum, pre-emergence, 336 h; 0.25 lb/acre; read-out: percent preemergent control. The method, then: as §1
The test system of another assay is corn. Format: in vivo, Zea mays. The settings on record: Zea mays, pre-emergence, 336 h; 0.25 lb/acre; read-out: percent preemergent control. The method, then:
as §1

The next assay relates to rape. It counts as in vivo, Brassica napus. The following applies: Brassica napus, pre-emergence, 336 h; 0.25 lb/acre; read-out: percent preemergent control. On the procedure: as §1
For a further assay, the system named is jimsonweed. It counts as in vivo, Datura stramonium. The following applies: Datura stramonium, pre-emergence, 336 h; 0.25 lb/acre; read-out: percent preemergent control. The method, then:
as §1

A further assay has as its system sorghum. It counts as in vivo, Sorghum vulgare. The following applies: Sorghum, pre-emergence, 336 h; 0.25 lb/acre; read-out: percent preemergent control. On the procedure:
as §1

Another assay has as its system yellow foxtail. It counts as in vivo, Setaria lutescens. The following applies: Setaria, pre-emergence, 336 h; 0.25 lb/acre; read-out: percent preemergent control. On the procedure:
as §1

The subject of another assay is rice. Format: in vivo, Oryza sativa. The settings on record: Oryza sativa, pre-emergence, 336 h; 0.25 lb/acre; read-out: percent preemergent control. The method, then:
as §1

For the next assay, the system named is yellow nutsedge. Format: in vivo, Cyperus esculentus. The following applies: Cyperus, pre-emergence, 336 h; 0.25 lb/acre; read-out: percent preemergent control. On the procedure:
as §1

Take `COc1nc2nc(S(=O)(=O)Nc3c(Cl)ccc(C)c3Cl)nn2cc1C` [Compound 218]: the pest or weed control at 280.212 g/ha in the assay with velvetleaf is 100%; with johnson grass, 50%; in the assay with annual morning glory, 100%; in the assay with barnyardgrass, 0%; with jimsonweed it was 100%; with yellow foxtail, 50%. Besides, the pest or weed control at 280.212 g/ha in the assay with yellow nutsedge came out at 50%. Moreover, the plant injury at 280.212 g/ha was determined as 100% with soybean; 100% in the assay with sugar beet; 0% with wheat; 100% in the assay with cotton; 0% with corn; 100% in the assay on rape. The plant injury at 280.212 g/ha was determined as 95% with sorghum and 0% in the assay with rice.
Regarding `COc1cccc(C(F)(F)F)c1NS(=O)(=O)c1nc2nccc(C)n2n1` [Compound 191], the pest or weed control at 280.212 g/ha in the assay with velvetleaf, with johnson grass, in the assay on annual morning glory, with barnyardgrass, in the assay on jimsonweed and with yellow foxtail was 100% in each case. Moreover, the pest or weed control at 280.212 g/ha in the assay on yellow nutsedge was found to be 100%. In addition, the plant injury at 280.212 g/ha came out at 100% in the assay on soybean; 100% in the assay on sugar beet; 100% with wheat; 100% in the assay on cotton; 95% in the assay on corn; 100% in the assay on rape. In the assay with sorghum, the plant injury at 280.212 g/ha came out at 100%.
As to `Cc1ccc(F)c(NS(=O)(=O)c2nc3nccc(C)n3n2)c1F` [Compound 190], the pest or weed control at 280.212 g/ha in the assay with velvetleaf was found to be 50%; in the assay on johnson grass, 30%; with annual morning glory it was 50%; in the assay on barnyardgrass it was 30%; in the assay with jimsonweed it was 90%; with yellow foxtail, 70%. Moreover, the pest or weed control at 280.212 g/ha in the assay on yellow nutsedge worked out at 100%. Moreover, the plant injury at 280.212 g/ha in the assay with soybean is 90%; with sugar beet, 100%; in the assay with wheat it was 20%; in the assay with cotton, 90%; in the assay with corn, 10%; in the assay on sorghum it was 95%. Moreover, the plant injury at 280.212 g/ha with rice was found to be 20%.
As for `Cc1cc(C(F)(F)F)n2nc(S(=O)(=O)Nc3c(F)cccc3F)nc2n1` [Compound 228], the pest or weed control at 280.212 g/ha with velvetleaf came out at 90%; with johnson grass, 90%; in the assay with annual morning glory, 70%; in the assay on barnyardgrass it was 90%; in the assay on jimsonweed, 100%; in the assay on yellow foxtail, 50%. Besides, in the assay on yellow nutsedge, the pest or weed control at 280.212 g/ha came to 50%. Moreover, the plant injury at 280.212 g/ha came out at 20% in the assay on soybean; 100% in the assay on sugar beet; 50% in the assay on wheat; 90% in the assay on cotton; 50% in the assay on corn; 80% in the assay with rape. In addition, the plant injury at 280.212 g/ha in the assay on sorghum was determined as 100%.
In the case of `O=S(=O)(Nc1c(Cl)cccc1Cl)c1nc2ncccn2n1` [Compound 137], the pest or weed control at 280.212 g/ha in the assay on velvetleaf turned out to be 80%; with johnson grass, 20%; in the assay on annual morning glory, 70%; with barnyardgrass, 20%; in the assay with jimsonweed, 10%; with yellow foxtail it was 20%. In addition, the pest or weed control at 280.212 g/ha in the assay with yellow nutsedge came out at 100%. Further, the plant injury at 280.212 g/ha in the assay on soybean was 0%; with sugar beet, 100%; with wheat, 30%; in the assay with cotton, 80%; with corn it was 0%; with sorghum, 30%. For the same compound, the plant injury at 280.212 g/ha with rice was found to be 50%.
